Patent US9636323B2, “Method of treating cancer that overexpresses TopBP1” (Baylor College of Medicine, priority 2014, dated 2017)

Experiments:
[1] = test system: BT549 cells; test: Trypan blue exclusion viability assay, BT549; format: cell-based, human
Description: (§1) To prepare TopBP1 knockdown stable cell line, MDA-MB468 cells were infected with lentivirus expressing TopBP1 shRNA (Liu et al. 2011) as well as scramble shRNA, separately. The infected cells were grown for 48 h followed by selection with puromycin (2 μg/ml). After selection, the knockdown was confirmed by Western blotting before further experiments. Two different pLKO-shTopBP1 (#1 and #2) constructs (Open Biosystems, RHS4533-NM_007027) were used to deplete TopBP1 in MDA-MB468 cells. Additional two pSuper-shTopBP1 constructs (Liu et al. 2004) were used to knock down TopBP1 in HEK293 cells. Two pSuper-shE2F1 constructs were used to deplete E2F1: shE2F1#1 (described previously (Liu et al. 2004)), and shE2F1#2 (target sequence 5′-[…]-3′). The target sequence for pSuperior-shE2F1 is the same as pSuper-shE2F1#1. To deplete p63, shp63alpha pLKO.1-puro (from Addgene, 19120) was used. TP73 MISSION shRNA (shp73 pLKO.1-puro) was purchased from Sigma (TRCN00002722587).

[2] = test system: primary leukemia cells from a patient with T cell acute lymphoblastic leukemia; test: Caspase 3/7 activation assay, primary leukemia cells; format: cell-based; conditions: 2.5 μM, 7 hours
Description: (§2) The apoptosis was measured by Caspase-Glo® 3/7 assay (Promega) following the manufacturer's protocol. The cells were plated in 6-well tissue culture dish (10^4 cells/well) (BD Falcon) in respective media. […] The blank reactions were prepared per direction. Equal volume of Caspase-Glo® 3/7 reagents were applied to each well. A luminometer (Sirius) was used to quantitate luminescence.

[3] = biological target: T1, TopBP1/Miz1 interaction (Homo sapiens, UniProt Q92547); test: Co-immunoprecipitation in BT549 cells, TopBP1/Miz1; format: cell-based; conditions: 2.5 μM, 3 h
T1 construct: expressed in transfected cells; host or cells: BT549

[4] = test system: U-87 MG glioblastoma multiforme cells; test: Caspase 3/7 activation assay, U-87 MG; format: cell-based; conditions: 2.5 or 5 μM, 16 hours
Description: as §2

[5] = test system: rats; conditions: cited from earlier work
[6] = test system: MDA-MB468 cells; test: MTS assay, MDA-MB468; format: cell-based, human; conditions: 5 h
Description: Then 50 μl of MTS reagent (CellTiter 96® AQueous One Solution Cell Proliferation Assay, Promega) was added to each well, covered from light and incubated for 1 h at 37.0 incubator to develop purple color. The samples were measured at 490 nm in a plate reader (BioTek Synergy HT) against a blank 48-well plate. Each assay was done in triplicate.

[7] = biological target: T2, TopBP1/mutp53(R273H) interaction (Homo sapiens, UniProt Q92547); test: Co-immunoprecipitation in MDA-MB468 cells, TopBP1/mutp53; format: cell-based; conditions: 2.5 μM, 5 h
T2 construct: endogenous in cells; host or cells: MDA-MB468
Description: MDA-MB468 cells were lysed with TNN buffer (Liu et al. 2003). An aliquot of cell lysates was lysed with SDS lysis buffer and the rest of cell lysates were incubated with appropriate antibodies or beads at 4° C. for 3-12 h. Anti-FLAG beads (Sigma) were washed three times with TNN buffer. Immunoprecipitates were fractionated by SDS-PAGE and electro-transferred to Immobilon-P membrane (Millipore). Equal amount of protein loading was validated with Ponceau-S staining. The specific signals were detected by incubating with appropriate antibody. All primary antibodies were used at 1:1000 dilution and horseradish peroxidase (HRP)-conjugated secondary antibodies were used at 1:5000 dilution for immunoblotting. E2F1 (C-20 and KH-95), p53 (FL393), p63 (4A4 and H-129), p73 (H-79), p21 (C-19), Bax (N-20), GST (B-14), c-Myc (A14), Miz1 (H-190), Chk1 (G4), Actin (C-2) and GAPDH (6C5) antibodies were purchased from Santa Cruz. TopBP1 (mouse monoclonal) and Aid antibodies were purchased from BD Transduction Laboratories. TopBP1 (BL893, Rabbit polyclonal) antibody was purchased from Bethyl. Mouse monoclonal anti-phospho-γH2AX was purchased from Millipore. Phospho-Chk1 (Ser345) antibody was purchased from Cell signaling. FLAG (F7425) antibody was purchased from Sigma. Mouse monoclonal anti-p73 (IMG-246) was purchased from IMGENEX.

[8] = test system: p53 transcriptional activity; test: p53 activity reporter assay (p21 promoter dual luciferase) in H1299 cells; format: cell-based, human
Description: E2F1 activity reporter assay using a p14^ARF promoter-luciferase plasmid was performed as described (Liu et al. 2003). p53 activity reporter assay was performed by a p21^Cip promoter-luciferase plasmid (Liu et al. 2009). p73 activity reporter assay was performed using a pGL3-Bax promoter-luciferase plasmid (Liu et al. 2011). pRL-TK (Renilla luciferase, Promega) was used in all experiments for controlling transfection efficiency. The firefly and Renilla luciferase activities were measured by Dual-Luciferase Reporter System (Promega), and the firefly luciferase activities were normalized against the Renilla activity. All assays were performed in triplicate.

[9] = test system: MDA-MB468 cells; test: Caspase 3/7 activity assay, MDA-MB468; format: cell-based, human
Description: as §2, §1

T1 sequence (Q92547 whole entry): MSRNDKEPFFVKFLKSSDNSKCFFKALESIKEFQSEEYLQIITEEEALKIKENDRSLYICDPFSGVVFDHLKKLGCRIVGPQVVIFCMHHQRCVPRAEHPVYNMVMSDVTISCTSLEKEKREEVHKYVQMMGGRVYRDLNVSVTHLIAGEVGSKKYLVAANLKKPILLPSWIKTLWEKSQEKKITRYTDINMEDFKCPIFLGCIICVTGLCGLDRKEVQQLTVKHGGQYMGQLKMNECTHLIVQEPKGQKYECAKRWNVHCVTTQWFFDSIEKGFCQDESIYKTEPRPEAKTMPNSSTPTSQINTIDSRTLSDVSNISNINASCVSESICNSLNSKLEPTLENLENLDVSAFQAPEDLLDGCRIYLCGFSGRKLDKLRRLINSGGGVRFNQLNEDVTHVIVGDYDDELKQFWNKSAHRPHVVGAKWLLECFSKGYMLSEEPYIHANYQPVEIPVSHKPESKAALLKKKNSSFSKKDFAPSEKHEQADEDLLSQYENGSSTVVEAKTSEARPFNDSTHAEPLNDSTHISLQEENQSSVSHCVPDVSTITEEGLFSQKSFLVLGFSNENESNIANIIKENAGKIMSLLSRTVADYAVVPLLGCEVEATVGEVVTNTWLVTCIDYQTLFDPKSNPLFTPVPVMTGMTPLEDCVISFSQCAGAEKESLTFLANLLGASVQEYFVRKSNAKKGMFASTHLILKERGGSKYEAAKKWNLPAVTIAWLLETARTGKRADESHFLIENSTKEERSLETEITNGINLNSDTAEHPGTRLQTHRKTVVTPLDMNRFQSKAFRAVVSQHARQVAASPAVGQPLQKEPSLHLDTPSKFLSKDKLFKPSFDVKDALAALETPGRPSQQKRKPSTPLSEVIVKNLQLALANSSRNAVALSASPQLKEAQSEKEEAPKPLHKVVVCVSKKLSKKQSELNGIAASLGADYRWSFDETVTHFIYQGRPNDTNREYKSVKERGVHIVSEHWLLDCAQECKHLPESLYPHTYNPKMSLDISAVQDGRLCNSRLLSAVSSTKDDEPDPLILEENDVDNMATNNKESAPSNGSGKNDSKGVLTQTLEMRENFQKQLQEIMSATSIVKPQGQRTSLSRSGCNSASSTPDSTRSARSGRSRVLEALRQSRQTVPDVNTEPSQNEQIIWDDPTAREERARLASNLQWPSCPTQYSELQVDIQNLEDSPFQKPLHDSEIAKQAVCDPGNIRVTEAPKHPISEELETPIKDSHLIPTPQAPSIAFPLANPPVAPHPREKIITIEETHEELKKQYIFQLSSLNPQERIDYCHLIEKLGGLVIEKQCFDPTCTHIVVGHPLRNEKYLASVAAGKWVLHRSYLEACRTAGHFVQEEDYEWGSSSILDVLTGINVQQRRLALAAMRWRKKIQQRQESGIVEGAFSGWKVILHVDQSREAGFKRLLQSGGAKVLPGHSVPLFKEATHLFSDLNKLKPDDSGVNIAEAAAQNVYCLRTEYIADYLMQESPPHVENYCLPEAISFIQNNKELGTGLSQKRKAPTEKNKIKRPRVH
T2 sequence (Q92547 whole entry, stated change not applied): as the sequence (Q92547 whole entry) above

CC(=O)OCOC(=O)CN(CC(=O)OCOC(C)=O)Cc1cc2c(cc1OC(C)=O)Oc1cc(OC(C)=O)c(CN(CC(=O)OCOC(C)=O)CC(=O)OCOC(C)=O)cc1C21OC(=O)c2ccccc21 [Calcein AM, Calcein AM (acetoxymethyl ester)]
Calcein AM response, viability assay ([1]; E2F1 depleted by two shRNA constructs, 2.5 μM, 20 h): attenuated
living cells compared with scrambled shRNA ([1]; p63- and p73-depleted cells, 2 μM, 15 h): more living cells
cell killing (caspase 3/7 activation) [2]: active in killing
interaction between TopBP1 and Miz1 [3]: inhibited the interaction between TopBP1 and Miz1
apoptosis (caspase 3/7 activation) [4]: induced apoptosis
oral LD50 [5]: 14500 mg/kg
doxorubicin sensitivity (MTS) ([6]; TopBP1-depleted cells, 2.5 μM): failed to cast the same effect
doxorubicin sensitivity (MTS) ([6]; co-treated with doxorubicin, Calcein AM 2.5 μM): greatly enhanced the doxorubicin sensitivity
proliferation (MTS) ([6]; increasing concentrations, versus MCF10A): preferentially inhibited the proliferation
doxorubicin sensitivity (MTS) ([6]; shScr control cells, 2.5 μM): sensitized
TopBP1/mutp53 interaction at physiological levels [7]: inhibited
p53 transcriptional activity [8]: enhanced
apoptosis (caspase 3/7 activity) ([9]; 2.5 μM overnight): induced apoptosis
apoptosis (caspase 3/7 activity) ([9]; 0.1 and 0.5 μM, 16 h): not
apoptosis (caspase 3/7 activity) ([9]; 2.5 and 5 μM, 16 h): induced
effect of Calcein AM on apoptosis (caspase 3/7) ([9]; TopBP1-depleted cells, 2.5 μM overnight): mitigated the effect
